Tests used:
TBK1 = biological target: T1, TBK1 (Homo sapiens, UniProt Q9UHD2); test: TBK1 inhibition, ADP-Glo Kinase Assay; assay type: biochemical; conditions: luminometer
T1 construct: purchased Promega V3991
T1 sequence (Q9UHD2 1-729): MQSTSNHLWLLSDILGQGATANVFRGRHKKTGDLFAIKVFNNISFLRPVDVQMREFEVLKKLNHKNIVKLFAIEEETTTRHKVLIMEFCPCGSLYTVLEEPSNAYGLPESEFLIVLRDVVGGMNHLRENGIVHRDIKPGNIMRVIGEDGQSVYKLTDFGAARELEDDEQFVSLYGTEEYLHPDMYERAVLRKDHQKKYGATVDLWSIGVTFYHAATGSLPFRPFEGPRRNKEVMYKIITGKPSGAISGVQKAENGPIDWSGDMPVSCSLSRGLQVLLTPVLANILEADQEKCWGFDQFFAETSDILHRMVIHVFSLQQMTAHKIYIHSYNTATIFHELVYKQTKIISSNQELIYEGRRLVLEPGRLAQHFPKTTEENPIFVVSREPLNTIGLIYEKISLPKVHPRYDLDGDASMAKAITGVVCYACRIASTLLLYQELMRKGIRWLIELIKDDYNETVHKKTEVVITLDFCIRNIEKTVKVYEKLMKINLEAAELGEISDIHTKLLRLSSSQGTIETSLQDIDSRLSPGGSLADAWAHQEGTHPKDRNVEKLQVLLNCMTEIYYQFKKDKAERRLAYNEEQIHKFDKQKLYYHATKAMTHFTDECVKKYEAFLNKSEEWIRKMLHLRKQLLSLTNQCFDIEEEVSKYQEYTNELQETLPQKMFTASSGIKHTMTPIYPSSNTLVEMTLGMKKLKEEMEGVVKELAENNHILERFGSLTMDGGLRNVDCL
Method in brief: (§1)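 Each recombinant kinase enzyme system was run per the manufacturer's protocol in 40 mM Tris pH 7.5, 20 mM MgCl2 and 0.1 mg/mL BSA. Kinase activity was detected as ADP formation by ADP-Glo luminescence.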

IKKε = biological target: T2, IKKε (Homo sapiens, UniProt Q14164); test: IKKε inhibition, ADP-Glo Kinase Assay; assay type: biochemical; conditions: luminometer
T2 construct: purchased Invitrogen PR8031B
T2 sequence (Q14164 1-716): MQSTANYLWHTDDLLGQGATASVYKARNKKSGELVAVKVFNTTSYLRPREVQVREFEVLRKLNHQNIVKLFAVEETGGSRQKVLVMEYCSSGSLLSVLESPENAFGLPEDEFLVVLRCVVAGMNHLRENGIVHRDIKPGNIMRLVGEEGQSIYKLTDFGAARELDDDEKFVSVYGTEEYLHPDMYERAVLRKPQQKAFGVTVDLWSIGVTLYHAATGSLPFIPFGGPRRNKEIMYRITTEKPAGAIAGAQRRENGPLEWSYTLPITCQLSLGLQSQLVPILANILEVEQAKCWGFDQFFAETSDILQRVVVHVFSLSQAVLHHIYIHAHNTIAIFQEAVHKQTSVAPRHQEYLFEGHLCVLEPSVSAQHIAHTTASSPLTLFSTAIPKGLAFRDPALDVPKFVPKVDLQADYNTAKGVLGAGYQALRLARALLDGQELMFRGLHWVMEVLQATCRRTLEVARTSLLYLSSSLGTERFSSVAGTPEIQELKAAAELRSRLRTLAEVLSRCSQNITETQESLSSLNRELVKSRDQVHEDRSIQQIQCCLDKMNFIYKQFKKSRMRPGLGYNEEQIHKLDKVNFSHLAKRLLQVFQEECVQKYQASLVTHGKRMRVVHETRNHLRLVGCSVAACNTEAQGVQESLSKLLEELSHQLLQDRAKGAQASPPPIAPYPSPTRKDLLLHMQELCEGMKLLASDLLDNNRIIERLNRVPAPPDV
Method in brief: as §1

IC50 (TBK1) [µM]	IC50 (IKKε) [µM]	SMILES
0.0027	0.014	CCC(NC(=O)c1ccc2[nH]nc(NC(=O)c3ccc(N4C[C@@H](C)N[C@@H](C)C4)cc3)c2c1)c1cccs1 (stereo partly drawn) [Example 99, 3-(4-((3R,5S)-3,5-Dimethylpiperazin-1-yl)benzamido)-N-(1-(thiophen-2-yl)propyl)-1H-indazole-5-carboxamide 2,2,2-trifluoroacetate]
0.22	0.95	Cc1noc(CNC(=O)c2ccc3[nH]nc(NC(=O)c4ccc(N5CCOCC5)cc4)c3c2)n1 [Example 100, N-((3-Methyl-1,2,4-oxadiazol-5-yl)methyl)-3-(4-morpholinobenzamido)-1H-indazole-5-carboxamide 2,2,2-trifluoroacetate]
0.15	0.96	Cc1noc(CNC(=O)c2ccc3[nH]nc(NC(=O)c4ccc(N5CCN(C)CC5)cc4)c3c2)n1 [Example 101, N-((3-Methyl-1,2,4-oxadiazol-5-yl)methyl)-3-(4-(4-methylpiperazin-1-yl)benzamido)-1H-indazole-5-carboxamide 2,2,2-trifluoroacetate]
0.0058	0.025	CCC(NC(=O)c1ccc2[nH]nc(NC(=O)c3ccc(N4CCNCC4)cc3)c2c1)c1cccs1 (stereo not drawn) [Example 102, 3-(4-(Piperazin-1-yl)benzamido)-N-(1-(thiophen-2-yl)propyl)-1H-indazole-5-carboxamide]
0.02	0.44	CN1CCN(c2ccc(C(=O)Nc3n[nH]c4ccc(C(=O)NCc5nccs5)cc34)cc2)CC1 [Example 103, 3-(4-(4-Methylpiperazin-1-yl)benzamido)-N-(thiazol-2-ylmethyl)-1H-indazole-5-carboxamide 2,2,2-trifluoroacetate]
0.026	0.37	O=C(NCc1nccs1)c1ccc2[nH]nc(NC(=O)c3ccc(N4CCOCC4)cc3)c2c1 [Example 104, 3-(4-Morpholinobenzamido)-N-(thiazol-2-ylmethyl)-1H-indazole-5-carboxamide 2,2,2-trifluoroacetate]
0.1	1.14	O=C(NCc1ncon1)c1ccc2[nH]nc(NC(=O)c3ccc(N4CCOCC4)cc3)c2c1 [Example 105, N-((1,2,4-Oxadiazol-3-yl)methyl)-3-(4-morpholinobenzamido)-1H-indazole-5-carboxamide 2,2,2-trifluoroacetate]
0.023	0.15	CN1CCN(c2ccc(C(=O)Nc3n[nH]c4ccc(C(=O)NCC5CCC5)cc34)cc2)CC1 [Example 106, N-(Cyclobutylmethyl)-3-(4-(4-methylpiperazin-1-yl)benzamido)-1H-indazole-5-carboxamide]
0.0028	0.015	CCC(NC(=O)c1ccc2[nH]nc(NC(=O)c3ccc(N4CCC(O)CC4)cc3)c2c1)c1cccs1 (stereo not drawn) [Example 108, 3-(4-(4-Hydroxypiperidin-1-yl)benzamido)-N-(1-(thiophen-2-yl)propyl)-1H-indazole-5-carboxamide]
0.0036	0.025	CCC(NC(=O)c1ccc2[nH]nc(NC(=O)c3ccc(N4CCN(CC)CC4)cc3)c2c1)c1cccs1 (stereo not drawn) [Example 109, 3-(4-(4-Ethylpiperazin-1-yl)benzamido)-N-(1-(thiophen-2-yl)propyl)-1H-indazole-5-carboxamide]
0.0072	0.036	CCC(NC(=O)c1ccc2[nH]nc(NC(=O)c3ccc(N4CCC(OC)CC4)cc3)c2c1)c1cccs1 (stereo not drawn) [Example 110, 3-(4-(4-methoxypiperidin-1-yl)benzamido)-N-(1-(thiophen-2-yl)propyl)-1H-indazole-5-carboxamide]
0.014	0.074	CC[C@H](NC(=O)c1ccc2[nH]nc(NC(=O)c3ccc(N4CCN(C)CC4)cc3)c2c1)c1cccs1 [Example 111, (S)-3-(4-(4-Methylpiperazin-1-yl)benzamido)-N-(1-(thiophen-2-yl)propyl)-1H-indazole-5-carboxamide]

From patent US10294207B2, “Pyrazole derivatives as TNIK, IKKϵ and TBK1 inhibitor and pharmaceutical composition comprising same” (GREEN CROSS CORPORATION, priority 2015, dated 2019)
